Consider 32 compounds from US9278958B2, “Anti-cancer compounds” (KATHOLIEKE UNIVERSITEIT LEUVEN, priority 2012, dated 2016).

Where two headings read alike, the source gives them in different places.

Test [1] has as its system CEM cells. As to the kind of experiment: Cytostatic assay, CEM. Format: cell-based. To be noted: for Ratio (tumor cell selectivity): ratio IC50 HeLa / IC50 CEM, Table 7. The procedure: (§1) To each well of a 96-well microtiter plate were added 5-7.5×10^4 cells and a given amount of the test compound. The cells were allowed to proliferate for 48 h to 96 h (depending on the nature of the cell line) at 37° C. in a humidified CO2-controlled atmosphere. At the end of the incubation period, the cells were counted in a Coulter Counter (Coulter Electronics Ltd, Harpenden Herts, United Kingdom).

Test [2] deals with HeLa cervix carcinoma cells. The experiment in a line: Cytostatic assay, HeLa. It is filed as cell-based, human. The procedure:
as §1

Where [3] appears, read: Homo sapiens, HeLa cells, Table 7, 5-arylthiomethyl-substituted 2-amino-3-carboxymethylthiophenes, read-out: IC50 (μM) HeLa.
The mark [4] stands for this setting: Homo sapiens, CCRF-CEM, CEM cells, Table 7, 5-arylthiomethyl-substituted 2-amino-3-carboxymethylthiophenes, read-out: IC50 (μM) CEM.
Where [5] appears, read: HeLa cells, Table 7, 5-arylthiomethyl-substituted 2-amino-3-carboxymethylthiophenes, read-out: IC50 (μM) HeLa.
[6] abbreviates: Table 1b, read-out: IC50 (μM) (HeLa).
Setting [7] is: CEM cells, Table 7, 5-arylthiomethyl-substituted 2-amino-3-carboxymethylthiophenes, read-out: IC50 (μM) CEM.
[8] abbreviates: Table 1b, read-out: IC50 (μM) (CEM).
Where [9] appears, read: Homo sapiens, CCRF-CEM, Table 1a, read-out: IC50 μM (CEM).
Where [10] appears, read: Homo sapiens, Table 1b, read-out: IC50 (μM) (HeLa).
The mark [11] stands for this setting: Homo sapiens, CCRF-CEM, Table 1b, read-out: IC50 (μM) (CEM).

Turning to “2-Amino-5-(2-(4-methoxyphenyl)ethyl)thiophene-3-carboxylate [TJ8]”, the IC50 in test [1] (Table 1a, read-out: IC50 μM (CEM)) worked out at 31 µM.
With `COC(=O)c1cc(CSc2ccccc2C)sc1N` [Compound D3, Methyl 2-amino-5-(o-tolylthiomethyl)thiophene-3-carboxylate], the figures for the half-maximal inhibitory concentration (IC50) in test [2] (setting [3]) and in test [1] (setting [4]) were 71 µM and 2 µM, respectively. Also, the “Ratio (tumor cell selectivity)” value in test [1] is given as 36.
On to `COC(=O)c1cc(CSc2ccc(Cl)cc2)sc1N` [Compound D4, Methyl 2-amino-5-((4-chlorophenylthio)methyl)thiophene-3-carboxylate], for which the results for the IC50 in test [2] (setting [3]) and in test [1] (setting [4]) were 42 µM and 1.7 µM, respectively. The “Ratio (tumor cell selectivity)” value in test [1] came to 25.
On to `COC(=O)c1cc(CSc2ccccc2OC)sc1N` [Compound D6, Methyl 2-amino-5-((2-methoxyphenylthio)methyl)thiophene-3-carboxylate], for which the values for the IC50 in test [2] (setting [3]) and in test [1] (setting [4]) were 94 µM and 17 µM, respectively. In test [1], the “Ratio (tumor cell selectivity)” value worked out at 6.
As to `COC(=O)c1ccccc1SCc1cc(C(=O)OC)c(N)s1` [Compound D7, Methyl 2-amino-5-((2-(methoxycarbonyl)phenylthio)methyl)thiophene-3-carboxylate], the IC50 in test [2] (setting [3]) came out at 190 µM; in test [1] (setting [4]), 27 µM. In addition, the “Ratio (tumor cell selectivity)” value in test [1] stood at 7.
`COC(=O)c1cc(CSC2CCCCC2)sc1N` [Compound D8, Methyl 2-amino-5-(cyclohexylthiomethyl)thiophene-3-carboxylate]: the IC50 in test [2] (setting [3]) was 81 µM; in test [1] (setting [4]), 2.1 µM. The “Ratio (tumor cell selectivity)” value in test [1] amounted to 39.
In the case of `COC(=O)c1cc(CSc2ccc(F)cc2)sc1N` [Compound D10, Methyl 2-amino-5-((4-fluorophenylthio)methyl)thiophene-3-carboxylate], the values for the IC50 in test [2] (setting [3]) and in test [1] (setting [4]) were 102 µM and 3.1 µM, respectively. The “Ratio (tumor cell selectivity)” value in test [1] was 33.
`COC(=O)c1cc(CSc2ccccc2)sc1N` [TJ4, Methyl 2-amino-5-(2-(phenyl)sulfanylmethyl)thiophene-3-carboxylate]: the IC50 in test [2] (setting [5]) was 108 µM; in test [2] (setting [6]), 108 ± 7 µM; in test [1] (setting [7]), 1.3 µM; in test [1] (setting [8]), 1.3 ± 0.6 µM. In addition, the “Ratio (tumor cell selectivity)” value in test [1] is reported as 83.
For the compound `CNc1sc(CCc2ccc(OC)cc2)cc1C(=O)OC` [TJ6A, Methyl 2-methylamino-5-(2-(4-methoxyphenyl)ethyl)thiophene-3-carboxylate], in test [1] (setting [9]), the IC50 stood at 23 µM.
Turning to `COC(=O)c1cc(CCc2ccc(OC)cc2)sc1N(C)C` [TJ6B, Methyl 2-dimethylamino-5-(2-(4-methoxyphenyl)ethyl)thiophene-3-carboxylate], in test [1] (setting [9]), the IC50 is 18 µM.
`COC(=O)c1csc(CCc2ccc(OC)cc2)c1` [TJ7, Methyl 5-(2-(4-methoxyphenyl)ethyl)thiophene-3-carboxylate]: the IC50 in test [1] (setting [9]) was 87 µM.
In the case of `COc1ccc(CCc2cc(C(N)=O)c(N)s2)cc1` [TJ9, 2-Amino-5-(2-(4-methoxyphenyl)ethyl)thiophene-3-carboxamide], the IC50 in test [1] (setting [9]) came out at 39 µM.
Take `CNC(=O)c1cc(CCc2ccc(OC)cc2)sc1N` [TJ19, N-Methyl 2-amino-5-(2-(4-methoxyphenyl)ethyl)thiophene-3-carboxamide]: the IC50 in test [1] (setting [9]) was determined as 31 µM.
Consider `COC(=O)c1cc(CSc2ccc(OC)cc2)sc1N1C(=O)c2ccccc2C1=O` [TJ21, Methyl 2-phthalimido-5-(2-(4-methoxyphenyl)sulfanylmethyl)thiophene-3-carboxylate], for which the 50% inhibitory concentration (IC50) turned out to be 112 ± 2 µM in test [2] (setting [6]) and 4.9 ± 1.4 µM in test [1] (setting [8]).
`COC(=O)c1cc(CSc2ccc(OC)cc2)sc1N` [TJ22, Methyl 2-amino-5-(2-(4-methoxyphenyl)sulfanylmethyl)thiophene-3-carboxylate]: the IC50 is 58 µM in test [2] (setting [5]), 58 ± 1 µM in test [2] (setting [6]), 0.62 µM in test [1] (setting [7]) and 0.62 ± 0.33 µM in test [1] (setting [8]). In addition, in test [1], the “Ratio (tumor cell selectivity)” value came to 93.
On to `COC(=O)c1cc(COc2ccc(OC)cc2)sc1N` [TJ25, Methyl 2-amino-5-(2-(4-methoxyphenyl)oxymethyl)thiophene-3-carboxylate], for which the IC50 turned out to be 68 ± 13 µM in test [2] (setting [6]) and 43 ± 13 µM in test [1] (setting [8]).
As to `COC(=O)c1cc(CNc2ccc(OC)cc2)sc1N` [TJ51, Methyl 2-amino-5-(2-(4-methoxyphenyl)aminomethyl)thiophene-3-carboxylate], the IC50 in test [2] (setting [6]) was found to be 78 ± 15 µM; in test [1] (setting [8]) it was 96 ± 16 µM.
Regarding `COC(=O)c1cc(CSc2cccc(C(=O)O)c2)sc1N` [TJ53, 3-((5-amino-4-(methoxycarbonyl)thiophen-2-yl)methylthio)benzoic acid], the results for the IC50 in test [2] (setting [3]) and in test [1] (setting [4]) were 75 µM and 124 µM, respectively. The “Ratio (tumor cell selectivity)” value in test [1] is “≦1”.
For the compound `COC(=O)c1cc(CSc2cccc(C)c2)sc1N` [TJ54P, Methyl 2-amino-5-(2-(3-methylphenyl)sulfanylmethyl)thiophene-3-carboxylate], the concentration for half-maximal inhibition (IC50) was 108 µM in test [2] (setting [5]), 108 µM in test [2] (setting [6]), 4.1 µM in test [1] (setting [7]) and 4.1 ± 1.7 µM in test [1] (setting [8]). In addition, the “Ratio (tumor cell selectivity)” value in test [1] is 26.
With `COC(=O)c1cc(CSc2cccc(C)c2)sc1N1C(=O)c2ccccc2C1=O` [TJ54SM, Methyl 2-phthalimido-5-(2-(3-methylphenyl)sulfanylmethyl)thiophene-3-carboxylate], the results for the IC50 in test [2] (setting [6]) and in test [1] (setting [8]) were 121 ± 13 µM and 6.9 ± 0.7 µM, respectively.
On to `COC(=O)c1cc(CSc2ccc(C)cc2)sc1N` [TJ55, Methyl 2-amino-5-((4-methylphenylthio)methyl)thiophene-3-carboxylate], for which the half-inhibitory concentration (IC50) in test [2] (setting [3]) is 72 µM; in test [2] (setting [10]), 72 ± 30 µM; in test [1] (setting [4]), 1.5 µM; in test [1] (setting [11]) it was 1.5 ± 0.3 µM. The “Ratio (tumor cell selectivity)” value in test [1] is on record as 48.
`COC(=O)c1cc(CSCc2ccccc2)sc1N` [TJ57, Methyl 2-amino-5-(2-(phenyl)methylsulfanylmethyl)thiophene-3-carboxylate]: the IC50 in test [2] (setting [5]) stood at 61 µM; in test [2] (setting [6]), 61 ± 38 µM; in test [1] (setting [7]) it was 3.5 µM; in test [1] (setting [8]) it was 3.5 ± 1.1 µM. In addition, in test [1], the “Ratio (tumor cell selectivity)” value stood at 17.
As for `COC(=O)c1cc(CSc2ccccc2)sc1N1C(=O)c2ccccc2C1=O` [TJ86, Methyl 2-phthalimido-5-(2-(phenyl)sulfanylmethyl)thiophene-3-carboxylate], the IC50 was determined as 184 ± 6 µM in test [2] (setting [6]) and 13 ± 7 µM in test [1] (setting [8]).
For the compound `COC(=O)c1cc(Cc2ccccc2)sc1N` [TJ109, Methyl 2-amino-5-benzylthiophene-3-carboxylate], the IC50 in test [1] (setting [9]) is 8.4 µM.
Consider `COC(=O)c1cc(CSc2ccc3ccccc3c2)sc1N` [TJ113, Methyl 2-amino-5-((naphthalen-2-ylthio)methyl)thiophene-3-carboxylate], for which the half-inhibitory concentration (IC50) in test [2] (setting [3]) came out at 74 µM; in test [2] (setting [10]), 74 ± 6 µM; in test [1] (setting [4]), 0.9 µM; in test [1] (setting [11]) it was 0.9 ± 0.04 µM. The “Ratio (tumor cell selectivity)” value in test [1] is on record as 82.
Turning to `COC(=O)c1cc(CSCc2ccco2)sc1N` [TJ117, Methyl 2-amino-5-((furan-2-ylmethylthio)methyl)thiophene-3-carboxylate], the 50% inhibitory concentration (IC50) in test [2] (setting [3]) was found to be 102 µM; in test [2] (setting [10]), 102 ± 6 µM; in test [1] (setting [4]), 4.9 µM; in test [1] (setting [11]), 4.9 ± 0.1 µM. Moreover, the “Ratio (tumor cell selectivity)” value in test [1] is 21.
On to `COC(=O)c1cc(CSCc2cccs2)sc1N` [TJ118, Methyl 2-amino-5-((thiophen-2-ylmethylthio)methyl)thiophene-3-carboxylate], for which the IC50 was found to be 99 µM in test [2] (setting [3]), 99 ± 5 µM in test [2] (setting [10]), 3.3 µM in test [1] (setting [4]) and 3.3 ± 0.9 µM in test [1] (setting [11]). The “Ratio (tumor cell selectivity)” value in test [1] worked out at 30.
Regarding `CCCCSCc1cc(C(=O)OC)c(N2C(=O)c3ccccc3C2=O)s1` [TJ119, Methyl 2-phthalimido-5-(2-(butyl)sulfanylmethyl)thiophene-3-carboxylate], the IC50 was 104 ± 1 µM in test [2] (Table 1c, read-out: IC50 (μM) HeLa) and 6.6 ± 3.2 µM in test [1] (Table 1c, read-out: IC50 (μM) CEM).
`COC(=O)c1cc(CSc2ccccc2N)sc1N` [TJ122, Methyl 2-amino-5-((2-aminophenylthio)methyl)thiophene-3-carboxylate]: the values for the IC50 in test [2] (setting [3]) and in test [1] (setting [4]) were 46 µM and 39 µM, respectively. Moreover, the “Ratio (tumor cell selectivity)” value in test [1] is 1.
As to `COC(=O)c1cc(CSc2ccc([N+](=O)[O-])cc2)sc1N` [TJ126, Methyl 2-amino-5-((4-nitrophenylthio)methyl)thiophene-3-carboxylate], the IC50 in test [2] (setting [3]) stood at 16 µM; in test [1] (setting [4]), 12 µM. Also, in test [1], the “Ratio (tumor cell selectivity)” value was 1.
Turning to `COC(=O)c1cc(CSCc2ccc(OC)cc2)sc1N1C(=O)c2ccccc2C1=O` [TJ127, Methyl 2-phthalimido-5-(2-(4-methoxybenzyl)sulfanylmethyl)thiophene-3-carboxylate], the IC50 came to 111 ± 20 µM in test [2] (setting [6]) and 25 ± 8 µM in test [1] (setting [8]).
On to `COC(=O)c1cc(CSc2ccncc2)sc1N` [TJ129, Methyl 2-amino-5-((pyridin-4-ylthio)methyl)thiophene-3-carboxylate], for which the IC50 in test [2] (setting [3]) was found to be 93 µM; in test [1] (setting [4]), 111 µM. Moreover, in test [1], the “Ratio (tumor cell selectivity)” value is given as 1.
